Experimental data reported in patent US8324250B2 (Hoffmann-La Roche Inc., priority 2009, dated 2012).
pKi: −log10 of the molar value.

Each compound was assayed against T1, recombinant human NK3 receptor (Homo sapiens, UniProt P29371) (assay: [3H]SR142801 competition binding assay). Conditions: membranes from HEK293 cells transiently expressing recombinant human NK3 receptor; [3H]SR142801 radioligand; 75 min at RT; Ki by Cheng-Prussoff; read-out: Data Ki (hNK-3 receptor affinity).
T1 construct: expressed in transfected cells; host or cells: HEK293 cells (transient expression), membranes
T1 sequence (P29371 1-465): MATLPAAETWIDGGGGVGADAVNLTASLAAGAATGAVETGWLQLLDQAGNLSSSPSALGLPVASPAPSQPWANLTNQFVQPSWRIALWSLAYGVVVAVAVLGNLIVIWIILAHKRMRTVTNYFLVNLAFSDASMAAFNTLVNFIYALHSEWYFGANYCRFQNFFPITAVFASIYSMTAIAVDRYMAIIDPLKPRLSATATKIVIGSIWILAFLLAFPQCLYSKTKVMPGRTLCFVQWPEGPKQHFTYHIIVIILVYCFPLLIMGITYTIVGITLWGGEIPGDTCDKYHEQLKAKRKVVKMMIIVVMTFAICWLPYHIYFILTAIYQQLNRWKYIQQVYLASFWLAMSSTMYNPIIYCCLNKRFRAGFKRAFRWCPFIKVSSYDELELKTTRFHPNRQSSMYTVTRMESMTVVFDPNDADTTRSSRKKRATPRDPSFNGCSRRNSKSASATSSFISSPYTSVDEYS
How it was run: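 Membranes from HEK293 cells transiently expressing the receptor, 5 μg protein/well, in 50 mM Tris-HCl pH 7.4 with 4 mM MnCl2, 1 μM phosphoramidon, 0.1% BSA; nonspecific binding defined with 10 μM SB222200. Filtration and scintillation counting; IC50 from Hill fit, Ki by Cheng-Prussoff using saturation-derived KD, duplicates.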

Structure (SMILES) | pKi
C[C@H](NC(=O)C1(c2ccccc2)CCN(C(=O)N2CCN(c3ccc(S(C)(=O)=O)cc3F)CC2)CC1)c1ccccc1 [Example 211, 1-[4-(2-Fluoro-4-methanesulfonyl-phenyl)-piperazine-1-carbonyl]-4-phenyl-piperidine-4-carboxylic acid ((S)-1-phenyl-ethyl)-amide] | 7.53
C[C@H](NC(=O)C1(c2ccccc2)CCN(C(=O)N2CCN(c3cccnc3)CC2)CC1)c1ccccc1 [Example 224, 4-Phenyl-1-(4-pyridin-3-yl-piperazine-1-carbonyl)-piperidine-4-carboxylic acid ((S)-1-phenyl-ethyl)-amide] | 7.20
CCc1nc(-c2ccc(C(=O)N3CCC(C(=O)N[C@@H](C)c4ccccc4)(c4ccccc4)CC3)cc2)no1 [Example 71, 1-[4-(5-Ethyl-[1,2,4]oxa-diazol-3-yl)-benzoyl]-4-phenyl-piperidine-4-carboxylic acid ((S)-1-phenyl-ethyl)-amide] | 7.55
C=C(C)CC1(C(=O)N[C@@H](C)c2ccc(F)cc2)CCN(C(=O)c2ccc(-c3ccc(F)cc3)cc2)CC1 [Example 113, 1-(4′-Fluoro-biphenyl-4-carbonyl)-4-(2-methyl-allyl)-piperidine-4-carboxylic acid [(S)-1-(4-fluoro-phenyl)-ethyl]-amide] | 7.45
C[C@H](NC(=O)C1(c2ccc(F)cc2)CCN(C(=O)c2ccc(N3CCCCC3=O)cc2)CC1)c1cccc(F)c1 [Example 173, 4-(4-Fluoro-phenyl)-1-[4-(2-oxo-piperidin-1-yl)-benzoyl]-piperidine-4-carboxylic acid [(S)-1-(3-fluoro-phenyl)-ethyl]-amide] | 7.37
O=C(N1CCN(c2ccc(F)cc2)CC1)N1CCC(C(=O)NC2(c3ccc(F)cc3)CC2)(c2ccc(F)cc2)CC1 [Example 174] | 7.62
N#Cc1ccc(N2CCC(C(=O)N3CCC(C(=O)NC(c4ccc(F)cc4)C(F)(F)F)(c4ccc(F)cc4)CC3)CC2)nc1 (stereo not drawn) [Example 154, 1-(5′-Cyano-3,4,5,6-tetrahydro-2H-[1,2′]bipyridinyl-4-carbonyl)-4-(4-fluoro-phenyl)-piperidine-4-carboxylic acid [2,2,2-trifluoro-1-(4-fluoro-phenyl)-ethyl]-amide] | 7.12
C[C@H](NC(=O)C1(c2ccccc2)CCN(C(=O)c2ccc(-c3ccc(N)cc3)cc2)CC1)c1ccccc1 [Example 64, 1-(4′-Amino-biphenyl-4-carbonyl)-4-phenyl-piperidine-4-carboxylic acid ((S)-1-phenyl-ethyl)-amide] | 7.14
C[C@H](NC(=O)C1(c2ccccc2)CCN(C(=O)c2ccc(-c3ccncc3)cc2)CC1)c1ccccc1 [Example 7, 4-Phenyl-1-(4-pyndin-4-yl-benzoyl)-piperidine-4-carboxylic acid ((S)-1-phenyl-ethyl)-amide] | 7.40
O=C(c1ccc(-c2ccc(F)cc2)cc1)N1CCC(C(=O)N[C@@H](c2cccc(F)c2)C2CC2)(c2ccc(F)cc2)CC1 [Example 194, 1-(4′-Fluoro-biphenyl-4-carbonyl)-4-(4-fluoro-phenyl)-piperidine-4-carboxylic acid [(R)-cyclopropyl-(3-fluoro-phenyl)-methyl]-amide] | 7.46
C[C@H](NC(=O)C1(c2ccccc2)CCN(C(=O)N2CCC(c3ccccc3)CC2)CC1)c1ccccc1 [Example 204, 4-Phenyl-1-(4-phenyl-piperidine-1-carbonyl)-piperidine-4-carboxylic acid ((S)-1-phenyl-ethyl)-amide] | 7.10
C[C@H](NC(=O)C1(c2ccccc2)CCN(C(=O)c2ccc(N3CCOCC3)nc2)CC1)c1ccccc1 [Example 10, 1-(6-Morpholin-4-yl-pyridine-3-carbonyl)-4-phenyl-piperidine-4-carboxylic acid ((S)-1-phenyl-ethyl)-amide] | 7.11
Cc1noc(-c2ccc(C(=O)N3CCC(C(=O)N[C@@H](C)c4ccc(F)cc4)(c4ccc(F)cn4)CC3)cc2)n1 [Example 126, 5-Fluoro-1′-[4-(3-methyl-[1,2,4]oxadiazol-5-yl)-benzoyl]-2′,3′,5′,6′-tetrahydro-1′H-[2,4′]bipyridinyl-4′-carboxylic acid [(S)-1-(4-fluoro-phenyl)-ethyl]-amide] | 7.03

Continued, values first:

pKi | Structure (SMILES)
7.82 | Cc1noc(-c2ccc(C(=O)N3CCC(C(=O)NC(c4ccc(F)cc4)C(F)(F)F)(c4ccc(F)cc4)CC3)cc2)n1 (stereo not drawn) [Example 200, 4-(4-Fluoro-phenyl)-1-[4-(3-methyl-[1,2,4]oxadiazol-5-yl)-benzoyl]-piperidine-4-carboxylic acid [2,2,2-trifluoro-1-(4-fluoro-phenyl)-ethyl]-amide]
7.91 | Cc1nc(-c2ccc(C(=O)N3CCC(C(=O)N[C@@H](C)c4ccc(F)cc4)(c4ccccc4)CC3)cc2)no1 [Example 77, 1-[4-(5-Methyl-[1,2,4]oxa-diazol-3-yl)-benzoyl]-4-phenyl-piperidine-4-carboxylic acid [(S)-1-(4-fluoro-phenyl)-ethyl]-amide]
8.16 | CC(C)C(NC(=O)C1(c2ccc(F)cc2)CCN(C(=O)c2ccc(-c3ccc(F)cc3)cc2)CC1)c1ccccc1 (stereo not drawn) [Example 143, 1-(4′-Fluoro-biphenyl-4-carbonyl)-4-(4-fluoro-phenyl)-piperidine-4-carboxylic acid (2-methyl-1-phenyl-propyl)-amide]
7.66 | C[C@H](NC(=O)C1(c2ccccc2)CCN(C(=O)N2CCN(C3CCCCC3)CC2)CC1)c1ccccc1 [Example 230, 1-(4-Cyclohexyl-piperazine-1-carbonyl)-4-phenyl-piperidine-4-carboxylic acid ((S)-1-phenyl-ethyl)-amide]
8.41 | Cc1nc(-c2ccc(C(=O)N3CCC(C(=O)N[C@@H](C)C4CCCCC4)(c4ccccc4)CC3)cc2)no1 [Example 75, 1-[4-(5-Methyl-[1,2,4]oxa-diazol-3-yl)-benzoyl]-4-phenyl-piperidine-4-carboxylic acid ((S)-1-cyclohexyl-ethyl)-amide]
8.03 | Cc1noc(-c2ccc(C(=O)N3CCC(C(=O)NC4(c5ccc(F)cc5)CC4)(c4ccc(F)cc4)CC3)cc2)n1 [Example 157, 4-(4-Fluoro-phenyl)-1-[4-(3-methyl-[1,2,4]oxadiazol-5-yl)-benzoyl]-piperidine-4-carboxylic acid [1-(4-fluoro-phenyl)-cyclopropyl]-amide]
8.15 | Cc1nc(-c2ccc(C(=O)N3CCC(C(=O)N[C@H](c4cccc(F)c4)C4CC4)(c4ccc(F)cc4)CC3)cc2)no1 [Example 197, 4-(4-Fluoro-phenyl)-1-[4-(5-methyl-[1,2,4]oxadiazol-3-yl)-benzoyl]-piperidine-4-carboxylic acid [(S)-cyclopropyl-(3-fluoro-phenyl)-methyl]-amide]
7.92 | Cc1nc(-c2ccc(C(=O)N3CCC(C(=O)NC(c4ccc(F)cc4)C(C)C)(c4ccc(F)cc4)CC3)cc2)no1 (stereo not drawn) [Example 164, 4-(4-Fluoro-phenyl)-1-[4-(5-methyl-[1,2,4]oxadiazol-3-yl)-benzoyl]-piperidne-4-carboxylic acid [1-(4-fluoro-phenyl)-2-methyl-propyl]-amide]
7.62 | C[C@H](NC(=O)C1(c2ccccc2)CCN(C(=O)c2ccc(-c3ccc(C(F)(F)F)cc3)cc2)CC1)c1ccccc1 [Example 5, 4-Phenyl-1-(4′-trifluoromethyl-biphenyl-4-carbonyl)-piperidine-4-carboxylic acid ((S)-1-phenyl-ethyl)-amide]
7.74 | C[C@H](NC(=O)C1(c2ccc(F)cc2)CCN(C(=O)c2ccc(-c3ccc(F)cc3)cc2)CC1)c1ccc(F)cc1 [Example 89, 1-(4′-Fluoro-biphenyl-4-carbonyl)-4-(4-fluoro-piperidine-phenyl)-4-carboxylic acid [(S)-1-(4-fluoro-phenyl)-ethyl]-amide]
8.17 | Cc1noc(-c2ccc(C(=O)N3CCC(C(=O)N[C@@H](c4ccc(F)cc4)C(F)(F)F)(c4ccc(F)cc4)CC3)cc2)n1 (racemic) [Example 202, 4-(4-Fluoro-phenyl)-1-[4-(3-methyl-[1,2,4]oxadiazol-5-yl)-benzoyl]-piperidine-4-carboxylic acid [(SR)-2,2,2-trifluoro-1-(4-fluoro-phenyl)-ethyl]-amide]
8.54 | Cc1noc(-c2ccc(C(=O)N3CCC(C(=O)N[C@@H](C)c4ccc(F)cc4)(c4ccccc4)CC3)cc2)n1 [Example 76, 1-[4-(3-Methyl-[1,2,4]oxa-diazol-5-yl)-benzoyl]-4-phenyl-piperidine-4-carboxylic acid [(S)-1-(4-fluoro-phenyl)-ethyl]-amide]
7.72 | C[C@H](NC(=O)C1(c2ccc(F)cc2)CCN(C(=O)N2CCN(c3ccc(F)cc3)CC2)CC1)c1cccc(F)c1 [Example 178, 4-(4-Fluoro-phenyl)-1-[4-(4-fluoro-phenyl)-piperazine-1-carbonyl]-piperidine-4-carboxylic acid [(S)-1-(3-fluoro-phenyl)-ethyl]-amide]
7.75 | O=C(c1ccc(-c2ccc(F)cc2)cc1)N1CCC(C(=O)NC(c2ccccc2)C2CC2)(c2ccc(F)cc2)CC1 (stereo not drawn) [Example 147, 1-(4′-Fluoro-biphenyl-4-carbonyl)-4-(4-fluoro-phenyl)-piperidine-4-carboxylic acid (cyclopropyl-phenyl-methyl)-amide]
